Laboratory results: ChEMBL document CHEMBL5126603, “Discovery of Clinical Candidate CHF-6366: A Novel Super-soft Dual Pharmacology Muscarinic Antagonist and β2 Agonist (MABA) for the Inhaled Treatment of Respiratory Diseases” (J Med Chem, 2022)

Tests used:
Trachea [1] = assay: In vivo bifunctional antagonist activity at muscarinic M3 receptor /agonist activity at beta-2 adrenoceptor in Dunkin-Hartley guinea pig trachea assessed as time duration for inhibition of carbachol induced contraction measured […]; format: functional, Cavia porcellus
Trachea [2] = assay: In vivo bifunctional antagonist activity at muscarinic M3 receptor /agonist activity at beta-2 adrenoceptor in Dunkin-Hartley guinea pig trachea assessed as inhibition of carbachol induced contraction; format: functional, tissue-based; conditions: Cavia porcellus
[3] = Metabolic stability in rat plasma assessed as half life at 5 uM measured upto 120 mins by LC-MS/MS analysis; format: ADME, cell-free
[4] = Metabolic stability in Dunkin-Hartley guinea pig plasma assessed as half life at 5 uM measured upto 120 mins by LC-MS/MS analysis; format: ADME, cell-free, Cavia porcellus
[5] = Metabolic stability in human lung S9 fraction assessed as half life at 1 uM measured after 0 to 60 mins in presence of NADPH by LC-MS/MS analysis; format: ADME, subcellular; conditions: time 0-60 min
[6] = Metabolic stability in human plasma assessed as half life at 5 uM measured upto 120 mins by LC-MS/MS analysis; format: ADME, cell-free
[7] = Mutagenicity in Escherichia coli assessed as induction of reverse mutation by Ames test; format: toxicity
[8] = Half life in Dunkin-Hartley guinea pig lung at 500 nmol/Kg, IT(Intratracheal) measured after 72 hrs by LC/MS-MS analysis; format: ADME, tissue-based, Cavia porcellus; conditions: inhaled or intranasal
[9] = Tmax in Dunkin-Hartley guinea pig lung at 500 nmol/Kg, IT(Intratracheal) measured after 72 hrs by LC/MS-MS analysis; format: ADME, tissue-based, Cavia porcellus; conditions: inhaled or intranasal
Trachea [10] = assay: (§1) Bifunctional antagonist activity at muscarinic M3 receptor /agonist activity at beta-2 adrenoceptor in Dunkin-Hartley guinea pig trachea assessed as inhibition of acetylcholine-induced bronchoconstriction at 1 nmol/Kg, IT(Intratracheal) measured after 5 mins by Konzett-Roessler methodology relative to control; format: functional; conditions: Cavia porcellus
[11] = Tmax in Dunkin-Hartley guinea pig plasma at 500 nmol/Kg, IT(Intratracheal) measured after 72 hrs by LC/MS-MS analysis; format: ADME, cell-free, Cavia porcellus; conditions: inhaled or intranasal
[12] = AUClast in Dunkin-Hartley guinea pig plasma at 500 nmol/Kg, IT(Intratracheal) measured after 72 hrs by LC/MS-MS analysis; format: ADME, cell-free, Cavia porcellus; set-up: time 72 hrs, dose 500 nmol/kg, route it(Intratracheal); conditions: inhaled or intranasal
[13] = Cmax in Dunkin-Hartley guinea pig lung at 500 nmol/Kg, IT(Intratracheal) measured after 72 hrs by LC/MS-MS analysis; format: ADME, tissue-based, Cavia porcellus; set-up: time 72 hrs, dose 500 nmol/kg, route it(Intratracheal); conditions: inhaled or intranasal
[14] = Half life in Dunkin-Hartley guinea pig plasma at 500 nmol/Kg, IT(Intratracheal) measured after 72 hrs by LC/MS-MS analysis; format: ADME, cell-free, Cavia porcellus; conditions: inhaled or intranasal
[15] = AUCinfinity in Dunkin-Hartley guinea pig plasma at 500 nmol/Kg, IT(Intratracheal) measured after 72 hrs by LC/MS-MS analysis; format: ADME, cell-free, Cavia porcellus; set-up: dose 500 nmol/kg, time 72 hrs, route it(Intratracheal); conditions: inhaled or intranasal
[16] = Mutagenicity in Salmonella typhimurium assessed as induction of reverse mutation by Ames test; format: toxicity; conditions: salmonella enterica subsp. enterica serovar typhimurium
[17] = AUCinfinity in Dunkin-Hartley guinea pig lung at 500 nmol/Kg, IT(Intratracheal) measured after 72 hrs by LC/MS-MS analysis; format: ADME, tissue-based, Cavia porcellus; set-up: dose 500 nmol/kg, time 72 hrs, route it(Intratracheal); conditions: in vivo, inhaled_or_intranasal
[18] = AUClast in Dunkin-Hartley guinea pig lung at 500 nmol/Kg, IT(Intratracheal) measured after 72 hrs by LC/MS-MS analysis; format: ADME, tissue-based, Cavia porcellus; conditions: in vivo, inhaled_or_intranasal
[19] = Cmax in Dunkin-Hartley guinea pig plasma at 500 nmol/Kg, IT(Intratracheal) measured after 72 hrs by LC/MS-MS analysis; format: ADME, cell-free, Cavia porcellus; set-up: dose 500 nmol/kg, time 72 hrs, route it(Intratracheal); conditions: inhaled or intranasal
Trachea [20] = assay: as §1, with “15” for “5”; format: functional; conditions: Cavia porcellus, 0.25 h
Trachea [21] = assay: as §1, with “30” for “5”; format: functional; conditions: Cavia porcellus, 0.5 h
[22] = Protein binding in human plasma assessed as unbound fraction at 5 uM measured after 4 hrs by LC-MS/MS analysis; format: ADME, cell-free
[23] = Protein binding in Dunkin-Hartley guinea pig plasma assessed as unbound fraction at 5 uM measured after 4 hrs by LC-MS/MS analysis; format: ADME, cell-free, Cavia porcellus
[24] = Protein binding in rat plasma assessed as unbound fraction at 5 uM measured after 4 hrs by LC-MS/MS analysis; format: ADME, cell-free
[25] = In vivo antagonist activity at muscarinic M3 receptor in Dunkin-Hartley guinea pig trachea assessed as inhibition of acetylcholine-induced bronchoconstriction at 3 nmol/Kg, IT(Intratracheal) measured after 1 hr in presence of ICI-118551 by Konzett-Roessler methodology relative to control; format: functional; conditions: Cavia porcellus
[26] = Metabolic stability in rat liver microsomes assessed as clearance at 1 uM measured per mg protein incubated upto 60 mins in presence of NADPH by LC-MS/MS analysis; format: ADME, Microsome; conditions: read-out: CLH
Trachea [27] = assay: as §1, with “3” for “1”, “1 hr” for “5 mins”; format: functional; conditions: Cavia porcellus
[28] = Efflux ratio of apparent permeability from basolateral to apical side over apical to basolateral side in human Caco-2 cells at 10 uM and measured after 2 hrs by LC-MS/MS analysis; format: ADME, cell-based
[29] = Metabolic stability in Dunkin-Hartley guinea pig lung S9 fraction assessed as half life at 1 uM measured after 0 to 60 mins in presence of NADPH by LC-MS/MS analysis; format: ADME, subcellular, Cavia porcellus; conditions: time 0-60 min
[30] = Metabolic stability in rat lung S9 fraction assessed as half life at 1 uM measured after 0 to 60 mins in presence of NADPH by LC-MS/MS analysis; format: ADME, subcellular; conditions: time 0-60 min
[31] = Metabolic stability in rat hepatocytes assessed as clearance at 1 uM measured per 10^6 cells and incubated upto 90 mins by LC-MS/MS analysis; format: ADME, cell-based, Hepatocyte; conditions: read-out: CLH
[32] = Apparent permeability across apical to basolateral side in human Caco-2 cells at 10 uM and measured after 2 hrs by LC-MS/MS analysis; format: ADME, cell-based
[33] = In vivo agonist activity at beta-2 adrenoceptor in Dunkin-Hartley guinea pig trachea assessed as inhibition of histamine-induced bronchoconstriction at 3 nmol/Kg, IT(Intratracheal) measured after 24 hr by Konzett-Roessler methodology relative to control; format: functional; conditions: Cavia porcellus
[34] = Apparent permeability across basolateral to apical side in human Caco-2 cells at 10 uM and measured after 2 hrs by LC-MS/MS analysis; format: ADME, cell-based
[35] = Metabolic stability in human liver microsomes assessed as clearance at 1 uM measured per mg protein incubated upto 60 mins in presence of NADPH by LC-MS/MS analysis; format: ADME, Microsome; conditions: read-out: CLH
[36] = In vivo antagonist activity at muscarinic M3 receptor in Dunkin-Hartley guinea pig trachea assessed as inhibition of acetylcholine-induced bronchoconstriction at 3 nmol/Kg, IT(Intratracheal) measured after 24 hr in presence of ICI-118551 by Konzett-Roessler methodology relative to control; format: functional; conditions: Cavia porcellus
Trachea [37] = assay: as §1, with “3” for “1”, “24 hr” for “5 mins”; format: functional; conditions: Cavia porcellus
[38] = Metabolic stability in human hepatocytes assessed as clearance at 1 uM measured per 10^6 cells and incubated upto 90 mins by LC-MS/MS analysis; format: ADME, cell-based, Hepatocyte; conditions: read-out: CLH
[39] = In vivo agonist activity at beta-2 adrenoceptor in Dunkin-Hartley guinea pig trachea assessed as inhibition of histamine-induced bronchoconstriction at 3 nmol/Kg, IT(Intratracheal) measured after 1 hr by Konzett-Roessler methodology relative to control; format: functional; conditions: Cavia porcellus
[40] = Metabolic stability in Dunkin-Hartley guinea pig hepatocytes assessed as clearance at 1 uM measured per 10^6 cells and incubated upto 90 mins by LC-MS/MS analysis; format: ADME, cell-based, Cavia porcellus, Hepatocyte; conditions: read-out: CLH

| Structure (SMILES) | Time (Trachea [1]) | IC50 (Trachea [2]) | half-life at 5 µM [3] | half-life at 5 µM [4] | half-life at 1 µM [5] | half-life at 5 µM [6] | Activity [7] | half-life [8] | Tmax [9] | inhibition in vivo at 0.001 µmol/kg (Trachea [10]) | Tmax [11] | AUC(0-t) at 72 h [12] | Cmax [13] | half-life [14] | AUC(0-inf) [15] | Activity [16] | AUC [17] | AUClast [18] | Cmax [19] | inhibition in vivo at 0.001 µmol/kg (Trachea [20]) | also measured |
| --- | --- | --- | --- | --- | --- | --- | --- | --- | --- | --- | --- | --- | --- | --- | --- | --- | --- | --- | --- | --- | --- |
| O=C(N[C@H](c1ccccc1)c1cccc(OCc2ccc(C(=O)OCCCCNC[C@H](O)c3ccc(O)c4[nH]c(=O)ccc34)cc2)c1)O[C@H]1CN2CCC1CC2 | 180 min | 1.26 nM | < 5 min | 46.7 min | 16.8 min | < 5 min | – | – | – | – | – | – | – | – | – | – | – | – | – | – | – |
| O=c1ccc2c([C@@H](O)CNCCCCO)ccc(O)c2[nH]1 | – | – | – | – | – | – | Non-Toxic | 858 min | 4.98 min | 51.4% | 4.98 min | 30.7 ng·h/mL | 334 ng/g | 464 min | 58.9 ng·h/mL | Non-Toxic | 3517 ng·h/g | 2429 ng·h/g | 13.8 ng/g | 23.2% | inhibition in vivo at 0.001 µmol/kg (Trachea [21]): 22% |
| O=C(N[C@@H](c1ccccc1)c1cccc(OCc2ccc(CCNC[C@H](O)c3ccc(O)c4[nH]c(=O)ccc34)cc2)c1)O[C@H]1CN2CCC1CC2 (racemic) | – | – | – | – | 216 min | – | – | – | – | – | – | – | – | – | – | – | – | – | – | – | Fu [22]: 98%; Fu [23]: 99%; Fu [24]: 98%; inhibition in vivo at 0.003 µmol/kg [25]: 78%; microsomal CLint at 1 µM [26]: 10 µL/min/mg; inhibition in vivo at 0.003 µmol/kg (Trachea [27]): 91%; efflux ratio at 2 h, 10 µM [28]: 1.5; half-life at 1 µM [29]: 70 min; half-life at 1 µM [30]: 200 min; hepatocyte CLint at 1 µM [31]: 25 µL/min/1e6 cells; Papp A→B at 2 h, 10 µM [32]: 2 ×10⁻⁶ cm/s; inhibition in vivo at 0.003 µmol/kg [33]: 35%; Papp B→A at 2 h, 10 µM [34]: 3.1 ×10⁻⁶ cm/s; microsomal CLint at 1 µM [35]: 16 µL/min/mg; inhibition in vivo at 0.003 µmol/kg [36]: 54%; inhibition in vivo at 0.003 µmol/kg (Trachea [37]): 77%; hepatocyte CLint at 1 µM [38]: 6 µL/min/1e6 cells; inhibition in vivo at 0.003 µmol/kg [39]: 67%; hepatocyte CLint at 1 µM [40]: 17 µL/min/1e6 cells |
| O=C(N[C@@H](c1ccccc1)c1cccc(OCc2ccc(C(=O)OCCCCNC[C@H](O)c3ccc(O)c4[nH]c(=O)ccc34)cc2)c1)O[C@H]1CN2CCC1CC2 | >225 min | 0.1 nM | < 5 min | 69.8 min | 26.4 min | < 5 min | – | – | – | – | – | – | – | – | – | – | – | – | – | – | – |
| Cn1nc(C(=O)O)cc1COc1cccc([C@@H](NC(=O)O[C@H]2CN3CCC2CC3)c2ccccc2)c1 | – | – | – | – | – | – | Non-Toxic | 316 min | 4.98 min | 0.84% | 4.98 min | 179 ng·h/mL | 1450 ng/g | 1240 min | 296 ng·h/mL | Non-Toxic | 6465 ng·h/g | 6226 ng·h/g | 41.7 ng/g | 1.92% | inhibition in vivo at 0.001 µmol/kg (Trachea [21]): 3.36% |
